Among the data in patent US10683269B2 (MISSION THERAPEUTICS LIMITED, priority 2016, dated 2020) are IC50 values, retold here.

SMILES strings stand for the structures.

The target of the assay is T1, USP7 (Homo sapiens, UniProt Q93009).
T1 construct: The USP7 construct was PCR amplified and cloned into a pFLAG-CMV-6a vector (Sigma-Aldrich) with an N-terminal FLAG tag; made in house; host or cells: HEK293T
T1 sequence (Q93009 whole entry): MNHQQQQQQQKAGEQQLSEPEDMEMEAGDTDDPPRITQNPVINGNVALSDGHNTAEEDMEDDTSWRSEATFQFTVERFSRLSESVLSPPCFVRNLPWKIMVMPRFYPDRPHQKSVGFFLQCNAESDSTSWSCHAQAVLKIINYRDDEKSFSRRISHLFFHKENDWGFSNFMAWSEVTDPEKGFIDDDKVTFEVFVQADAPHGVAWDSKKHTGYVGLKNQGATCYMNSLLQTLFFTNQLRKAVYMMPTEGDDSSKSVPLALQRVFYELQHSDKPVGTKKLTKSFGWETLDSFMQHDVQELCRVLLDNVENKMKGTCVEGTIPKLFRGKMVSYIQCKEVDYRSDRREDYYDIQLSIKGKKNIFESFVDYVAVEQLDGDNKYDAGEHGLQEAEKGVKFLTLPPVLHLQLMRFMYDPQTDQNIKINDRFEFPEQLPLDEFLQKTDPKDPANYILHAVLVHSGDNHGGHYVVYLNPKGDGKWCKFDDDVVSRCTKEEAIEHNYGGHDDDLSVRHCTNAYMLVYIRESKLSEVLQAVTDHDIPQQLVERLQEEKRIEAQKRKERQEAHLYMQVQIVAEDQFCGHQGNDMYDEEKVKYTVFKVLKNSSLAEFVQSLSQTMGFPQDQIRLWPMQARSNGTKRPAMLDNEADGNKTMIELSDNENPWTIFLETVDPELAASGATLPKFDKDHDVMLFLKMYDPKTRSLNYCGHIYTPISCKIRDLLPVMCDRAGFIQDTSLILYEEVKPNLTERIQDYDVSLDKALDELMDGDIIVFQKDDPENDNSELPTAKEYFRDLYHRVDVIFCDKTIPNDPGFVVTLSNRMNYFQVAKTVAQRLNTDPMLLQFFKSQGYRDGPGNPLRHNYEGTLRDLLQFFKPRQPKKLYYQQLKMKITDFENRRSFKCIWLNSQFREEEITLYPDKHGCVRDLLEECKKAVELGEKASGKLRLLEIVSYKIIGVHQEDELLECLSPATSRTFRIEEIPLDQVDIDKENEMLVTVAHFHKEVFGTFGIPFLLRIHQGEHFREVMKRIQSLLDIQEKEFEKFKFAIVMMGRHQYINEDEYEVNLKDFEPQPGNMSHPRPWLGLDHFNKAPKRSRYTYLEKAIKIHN
In words: USP7 biochemical IC50 assay (fluorescence polarisation, TAMRA labelled peptide linked to ubiquitin via an iso-peptide bond). The settings on record: 30 min pre-incubation of enzyme and compound, read after 2 hr incubation at room temperature, read-out: IC50 range. The essentials: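 Fluorescence polarisation at 540 nm excitation/590 nm emission, read immediately and after 2 hr at room temperature, following addition of 50 nM TAMRA-labelled iso-peptide ubiquitin substrate.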
For `N#CN1Cc2cccc(NC(=O)c3ccc(-c4cccnc4)cc3)c2C1` [Example 81, N-(2-cyanoisoindolin-4-yl)-4-(pyridin-3-yl)benzamide], the IC50 was 1 to 10 µM. As for `Cn1nccc1CNc1nc2c(c(N3CCc4ccccc4C3)n1)CN(C#N)C2` [Example 198, 4-(3,4-dihydroisoquinolin-2(1H)-yl)-2-(((1-methyl-1H-pyrazol-5-yl)methyl)amino)-5,7-dihydro-6H-pyrrolo[3,4-d]pyrimidine-6-carbonitrile], the figure is 1 to 10 µM; as for `CC(=O)N(C)Cc1cc2c(c(-c3ccc(C#N)cc3)c1)CN(C#N)C2` [Example 218, N-((2-cyano-7-(4-cyanophenyl)isoindolin-5-yl)methyl)-N-methylacetamide], 1 to 10 µM; as for `N#Cc1ccc(-c2cc(C(N)=O)cc3c2CN(C#N)C3)c(C#N)c1` [Example 233, 2-cyano-7-(2,4-dicyanophenyl)isoindoline-5-carboxamide], 1 to 10 µM. With `CN1CCC[C@@H](C(=O)Nc2cc3c(c(-c4ccc(C#N)cc4)c2)CN(C#N)C3)C1` [Example 26, (R)-N-(2-cyano-7-(4-cyanophenyl)isoindolin-5-yl)-1-methylpiperidine-3-carboxamide], the IC50 was below 1 µM. Under `CC(=O)Nc1nc2c(c(-c3cccc(NS(C)(=O)=O)c3)n1)CN(C#N)C2` [Example 109, N-(6-cyano-4-(3-(methylsulfonamido)phenyl)-6,7-dihydro-5H-pyrrolo[3,4-d]pyrimidin-2-yl)acetamide] stands 1 to 10 µM; under `CN1CCC[C@@H](C(=O)Nc2cc3c(c(-c4cccc(C#N)c4)c2)CN(C#N)C3)C1` [Example 27, (R)-N-(2-cyano-7-(3-cyanophenyl)isoindolin-5-yl)-1-methylpiperidine-3-carboxamide], below 1 µM. In the case of `CN1CC(C(=O)Nc2cc3c(c(-c4ccc(C#N)cc4)c2)CN(C#N)C3)CCC1=O` (stereo not drawn) [Example 266, N-(2-cyano-7-(4-cyanophenyl)isoindolin-5-yl)-1-methyl-6-oxopiperidine-3-carboxamide], the IC50 fell in the range of 1 to 10 µM.

With `N#Cc1cc(Cl)ccc1-c1cccc2c1CN(C#N)C2` [Example 169, 4-(4-chloro-2-cyanophenyl)isoindoline-2-carbonitrile], the IC50 lay within 1 to 10 µM. In the case of `N#CN1Cc2cccc(Nc3ncc4ccccc4n3)c2C1` [Example 21, 4-(quinazolin-2-ylamino)isoindoline-2-carbonitrile], the IC50 lay in the range of 1 to 10 µM. Under `Cc1ccccc1-c1cccc2c1CN(C#N)C2` [Example 12, 4-(o-tolyl)isoindoline-2-carbonitrile] stands 1 to 10 µM; under `N#Cc1ccc(-c2cc(CNC(=O)C3CCOCC3)cc3c2CN(C#N)C3)cc1` [Example 219, N-((2-cyano-7-(4-cyanophenyl)isoindolin-5-yl)methyl)tetrahydro-2H-pyran-4-carboxamide], 1 to 10 µM; under `N#CN1Cc2cccc(-c3cccc4c3NC(=O)C4)c2C1` [Example 165, 4-(2-oxoindolin-7-yl)isoindoline-2-carbonitrile], 1 to 10 µM. As for `N#Cc1cc(F)c(-c2cc(C#N)cc3c2CN(C#N)C3)c(C(N)=O)c1` [Example 297, 5-cyano-2-(2,6-dicyanoisoindolin-4-yl)-3-fluorobenzamide], the figure is 1 to 10 µM; as for `Cc1ccccc1-c1nc2c(c(N3CCCC3C(N)=O)n1)CN(C#N)C2` (stereo not drawn) [Example 143, 1-(6-cyano-2-(o-tolyl)-6,7-dihydro-5H-pyrrolo[3,4-d]pyrimidin-4-yl)pyrrolidine-2-carboxamide], 10 to 30 µM. On to `N#CN1Cc2nc(NCc3ccco3)nc(-c3ccccc3)c2C1` [Example 121, 2-((furan-2-ylmethyl)amino)-4-phenyl-5,7-dihydro-6H-pyrrolo[3,4-d]pyrimidine-6-carbonitrile], for which the IC50 is 10 to 30 µM. Take `Cc1[nH]ncc1-c1nc2c(c(N3CCCC3C(N)=O)n1)CN(C#N)C2` (stereo not drawn) [Example 144, 1-(6-cyano-2-(5-methyl-1H-pyrazol-4-yl)-6,7-dihydro-5H-pyrrolo[3,4-d]pyrimidin-4-yl)pyrrolidine-2-carboxamide]: the IC50 is 10 to 30 µM. As for `CN(C)CC(=O)Nc1cc2c(c(-c3ccc(C#N)cc3)c1)CN(C#N)C2` [Example 267, N-(2-cyano-7-(4-cyanophenyl)isoindolin-5-yl)-2-(dimethylamino)acetamide], the figure is below 1 µM. As to `N#Cc1ccccc1-c1cccc2c1CN(C#N)C2` [Example 166, 4-(2-cyanophenyl)isoindoline-2-carbonitrile], the IC50 was 1 to 10 µM.

For `N#CN1Cc2nc(-c3ccccc3C(N)=O)nc(N3CCc4ccccc4C3)c2C1` [Example 138, 2-(6-cyano-4-(3,4-dihydroisoquinolin-2(1H)-yl)-6,7-dihydro-5H-pyrrolo[3,4-d]pyrimidin-2-yl)benzamide], the IC50 lay within 1 to 10 µM. For `Cn1cc(-c2cccc3c2CN(C#N)C3)cn1` [Example 7, 4-(1-methyl-1H-pyrazol-4-yl)isoindoline-2-carbonitrile], the IC50 fell in the range of 1 to 10 µM. Under `CN1CCOC(CNc2nc3c(c(N4CCc5ccccc5C4)n2)CN(C#N)C3)C1` (stereo not drawn) [Example 197, 4-(3,4-dihydroisoquinolin-2(1H)-yl)-2-(((4-methylmorpholin-2-yl)methyl)amino)-5,7-dihydro-6H-pyrrolo[3,4-d]pyrimidine-6-carbonitrile] stands 1 to 10 µM; under `CC(=O)Nc1nc2c(c(-c3cccc(C#N)c3)n1)CN(C#N)C2` [Example 105, N-(6-cyano-4-(3-cyanophenyl)-6,7-dihydro-5H-pyrrolo[3,4-c]pyrimidin-2-yl)acetamide], 1 to 10 µM; under `Cn1cc(Nc2nc3c(c(-c4ccccc4)n2)CN(C#N)C3)cn1` [Example 112, 2-((1-methyl-1H-pyrazol-4-yl)amino)-4-phenyl-5,7-dihydro-6H-pyrrolo[3,4-d]pyrimidine-6-carbonitrile], 1 to 10 µM. With `CN(C)C(=O)NCc1cc2c(c(-c3ccc(C#N)cc3)c1)CN(C#N)C2` [Example 223, 3-((2-cyano-7-(4-cyanophenyl)isoindolin-5-yl)methyl)-1,1-dimethylurea], the IC50 is 1 to 10 µM. Turning to `CN1CC(C(=O)Nc2cc3c(c(-c4ccc(C#N)cc4)c2)CN(C#N)C3)CC1=O` (stereo not drawn) [Example 265, N-(2-cyano-7-(4-cyanophenyl)isoindolin-5-yl)-1-methyl-5-oxopyrrolidine-3-carboxamide], the IC50 was 1 to 10 µM. On to `CC1c2cccc(-c3ccc(Cl)cc3C(N)=O)c2CN1C#N` (single isomer, unassigned) [Example 258, 5-chloro-2-(2-cyano-1-methylisoindolin-4-yl)benzamide], for which the IC50 lay in the range of 10 to 30 µM. `N#CN1Cc2cccc(-c3cccc(C(=O)Nc4ccccc4)c3)c2C1` [Example 75, 3-(2-cyanoisoindolin-4-yl)-N-phenylbenzamide]: the IC50 was in the range of 1 to 10 µM. Under `N#Cc1ccc(-c2cccc3c2CN(C#N)C3)c(C(=O)N2CCC2)c1` [Example 4, 4-(2-(azetidine-1-carbonyl)-4-cyanophenyl)isoindoline-2-carbonitrile] stands 1 to 10 µM; under `N#Cc1ccc(-c2nc(NCCO)nc3c2CN(C#N)C3)cc1` [Example 208, 4-(4-cyanophenyl)-2-((2-hydroxyethyl)amino)-5,7-dihydro-6H-pyrrolo[3,4-d]pyrimidine-6-carbonitrile], 10 to 30 µM.
